Like-named read-outs stand apart in the source and are kept apart here.
What was measured:
[1] = molecular target: T1, LPA3 (Homo sapiens, UniProt Q9UBY5); assay: Ca2+ transients (agonism / inhibition of LPA response) in RH7777 cells stably expressing LPA3; type: cell-based; settings: for effect at LPA3 in words: Ca2+ transients
T1 construct: expressed in transfected cells
T1 sequence (Q9UBY5 1-353): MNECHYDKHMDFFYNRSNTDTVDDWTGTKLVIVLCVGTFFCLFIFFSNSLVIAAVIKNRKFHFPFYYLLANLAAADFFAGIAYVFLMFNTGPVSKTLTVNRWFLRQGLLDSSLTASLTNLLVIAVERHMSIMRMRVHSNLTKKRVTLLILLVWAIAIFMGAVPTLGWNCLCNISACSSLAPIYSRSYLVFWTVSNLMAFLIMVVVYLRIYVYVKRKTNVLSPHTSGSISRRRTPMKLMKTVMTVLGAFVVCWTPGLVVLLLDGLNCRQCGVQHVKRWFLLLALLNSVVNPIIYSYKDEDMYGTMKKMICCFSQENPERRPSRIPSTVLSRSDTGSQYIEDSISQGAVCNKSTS
Description: (§1) The culture medium (DMEM containing 10% FBS) was then replaced with modified Krebs solution (120 mM NaCl, 5 mM KCl, 0.62 mM MgSO4, 1.8 mM CaCl2, 10 mM HEPES, 6 mM glucose, pH 7.4) and the cells were serum starved for 6–8 hours (12 h for PC-3 cells). Cells were loaded with Fura-2 AM for 35 minutes in modified Krebs medium. The Fura-2 was removed before loading the plate in the FlexStation instrument by replacing the medium once again with 100 μl modified Krebs medium/well. Plates were incubated for 4 minutes in the instrument to allow for warming to 37° C. Changes in intracellular Ca^2+ concentration were monitored by measuring the ratio of emitted light intensity at 520 nm in response to excitation by 340 nm and 380 nm wavelength lights, respectively. Each well was monitored for 80–120 seconds. […] Time courses were recorded using the SoftMax Pro software (Molecular Devices, Sunnyvale, Calif.). Ca^2+ transients were quantified automatically by calculating the difference between maximum and baseline ratio values for each well.
(§2) Each FAP analog was tested for the ability to induce Ca^2+ transients in RH7777 cells transfected with LPA1-3 receptors (agonism), as well as the ability to inhibit LPAinduced Ca^2+ transients in the same cells (antagonism) (Table 3).

[2] = molecular target: T2, LPA2 (Homo sapiens, UniProt Q9HBW0); assay: Ca2+ transients (agonism / inhibition of LPA response) in RH7777 cells stably expressing LPA2; type: cell-based
T2 construct: expressed in transfected cells
T2 sequence (Q9HBW0 whole entry): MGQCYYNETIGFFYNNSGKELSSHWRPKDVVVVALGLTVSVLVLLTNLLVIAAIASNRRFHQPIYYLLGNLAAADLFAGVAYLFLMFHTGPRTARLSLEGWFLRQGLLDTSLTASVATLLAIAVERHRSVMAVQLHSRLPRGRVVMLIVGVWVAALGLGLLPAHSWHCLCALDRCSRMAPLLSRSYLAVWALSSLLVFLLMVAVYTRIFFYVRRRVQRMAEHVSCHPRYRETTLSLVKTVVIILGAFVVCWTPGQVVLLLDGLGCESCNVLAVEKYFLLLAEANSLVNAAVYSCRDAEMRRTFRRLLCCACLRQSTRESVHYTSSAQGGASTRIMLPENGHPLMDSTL
Description: as §1, §2

[3] = molecular target: T3, LPA1 (Homo sapiens, UniProt Q92633); assay: Ca2+ transients (agonism / inhibition of LPA response) in RH7777 cells stably expressing LPA1; type: cell-based
T3 construct: expressed in transfected cells
T3 sequence (Q92633 whole entry): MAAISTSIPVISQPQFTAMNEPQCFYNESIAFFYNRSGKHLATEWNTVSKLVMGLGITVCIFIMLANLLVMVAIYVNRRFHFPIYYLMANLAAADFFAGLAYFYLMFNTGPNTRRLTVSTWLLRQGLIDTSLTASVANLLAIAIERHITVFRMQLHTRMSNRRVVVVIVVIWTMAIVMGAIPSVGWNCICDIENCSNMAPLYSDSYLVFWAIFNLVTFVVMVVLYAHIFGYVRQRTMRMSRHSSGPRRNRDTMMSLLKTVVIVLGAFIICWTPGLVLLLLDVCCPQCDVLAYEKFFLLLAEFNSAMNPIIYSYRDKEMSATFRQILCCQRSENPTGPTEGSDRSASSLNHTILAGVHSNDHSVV
Description: as §1, §2

[4] = system: PC-3 cells; assay: Ca2+ transients in PC-3 cells endogenously expressing LPA1-3; type: cell-based, human
Description: as §1
We tested the FAP analogs in PC-3 cells, which unlike the transfected RH7777 cells endogenously express LPA1-3 receptors.

[5] = induction of Ca2+ transients, RH7777 cells expressing LPA3, read-out: LPA3 EC50
[6] = inhibition of LPA-induced Ca2+ transients, RH7777 cells expressing LPA3, read-out: LPA3 (Ki)
[7] = inhibition of LPA-induced Ca2+ transients, RH7777 cells expressing LPA3, read-out: LPA3 IC50
[8] = induction of Ca2+ transients, RH7777 cells expressing LPA2, read-out: LPA2 EC50
[9] = inhibition of LPA-induced Ca2+ transients, RH7777 cells expressing LPA2, read-out: LPA2 IC50
[10] = induction of Ca2+ transients, RH7777 cells expressing LPA1, read-out: LPA1 EC50
[11] = inhibition of LPA-induced Ca2+ transients, RH7777 cells expressing LPA1, read-out: LPA1 IC50
[12] = inhibition of LPA-induced Ca2+ transients, PC-3 cells
[13] = inhibition of LPA-induced Ca2+ transients, PC-3 cells, read-out: PC-3 IC50
[14] = RH7777, maximal efficacy of the drug/maximal efficacy of LPA 18:1, read-out: LPA2 (Emax)
[15] = Homo sapiens, inhibition of LPA-induced Ca2+ transients, PC-3 cells, read-out: PC-3 IC50
[16] = Homo sapiens, PC-3, read-out: PC-3 IC50

| Structure (SMILES) | EC50 [1, 5] | Ki [1, 6] | IC50 [1, 7] | EC50 [2, 8] | IC50 [2, 9] | EC50 [3, 10] | IC50 [3, 11] | Ki [4, 12] | EC50 [1] | EC50 [3] | IC50 [3] | IC50 [4, 16] | further results |
| --- | --- | --- | --- | --- | --- | --- | --- | --- | --- | --- | --- | --- | --- |
| CCCCCCCCCCCCCCP(=O)(O)O [Compound 9c, n-tetradecyl-phosphonate] | > 30000 nM | 1120 nM | 3100 nM | > 30000 nM | 5500 nM | > 30000 nM | ~10000 nM | 4620 nM | – | – | – | – | effect at LPA3 in words ([1]; RH7777 cells expressing LPA3): IC50 values in the micromolar range; effect at LPA2 in words ([2]; Ca2+ transients, RH7777 cells expressing LPA2): IC50 values in the micromolar range; Ki ([2]; inhibition of LPA-induced Ca2+ transients, RH7777 cells expressing LPA2): 3550 nM; effect at LPA1 in words ([3]; Ca2+ transients, RH7777 cells expressing LPA1): IC50 values in the micromolar range; IC50 [4, 13]: 9670 nM |
| CCCCCCCCCCCCCCC(F)(F)P(=O)(O)O [Compound 11, (1,1-Difluoro-pentadecyl) Phosphonic Acid] | > 30000 nM | 575 nM | 1510 nM | – | > 30000 nM | > 30000 nM | 2500 nM | – | – | – | – | – | Emax [2, 14]: 40%; EC50 ([2]; RH7777 cells expressing LPA2, read-out: LPA2 EC50): 10000 nM; Ki ([3]; inhibition of LPA-induced Ca2+ transients, RH7777 cells expressing LPA1): 788 nM; inhibition of LPA response at LPA1 (partial antagonism) ([3]; maximal inhibition): 40% |
| CCC=CCCCCCCCCCCOP(=O)(O)O [Compound 5e, Phosphoric acid monotetradec-11-enyl ester] | > 30000 nM | 40 nM | 103 nM | 4100 nM | > 30000 nM | – | – | – | – | – | – | – | Emax [2, 14]: 75% |
| C=CCCCCCCCCOP(=O)(O)O [Compound 5a, Phosphoric acid monodec-9-enyl ester] | > 30000 nM | 504 nM | 770 nM | – | > 30000 nM | > 30000 nM | – | 574 nM | – | – | – | – | Emax [2, 14]: 100%; IC50 [4, 15]: 1510 nM |
| CCCCCCCCCCCCCCCCCCP(=O)(O)O [Compound 9d, n-octadecyl-phosphonate] | > 30000 nM | – | > 30000 nM | > 30000 nM | > 30000 nM | > 30000 nM | > 30000 nM | – | – | – | – | – | EC50 ([4]; induction of Ca2+ transients, PC-3 cells, read-out: PC-3 EC50): > 30000 nM; IC50 [4, 13]: > 30000 nM |
| CCCCCCCCCCCCP(=O)(O)O [Compound 9b, n-dodecyl-phosphonate] | > 30000 nM | 303 nM | 654 nM | > 30000 nM | > 30000 nM | > 30000 nM | > 30000 nM | 1270 nM | – | – | – | – | IC50 [4, 13]: 2640 nM |
| CCC=CCCCCCCCCOP(=O)(O)O [Compound 5c, Phosphoric acid monododec-9-enyl ester] | > 30000 nM | 27 nM | 32 nM | 717 nM | > 30000 nM | > 30000 nM | > 10000 nM | 390 nM | – | – | – | – | IC50 [4, 15]: 916 nM |
| CCCCC=CCCCCCCCCOP(=O)(O)O [Compound 5d, Phosphoric acid monotetradec-9-enyl ester] | > 30000 nM | 58 nM | 96 nM | 397 nM | > 30000 nM | – | – | 123 nM | – | – | – | – | Emax [2, 14]: 58%; IC50 [4, 15]: 241 nM |
| C=CCCCCCCCCOP(O)(O)=S [Compound 8d, Thiophosphoric acid O-dec-9-enyl ester] | – | 128 nM | 340 nM | – | – | – | – | 533 nM | > 30000 nM | > 30000 nM | > 30000 nM | 1000 nM | IC50 [2]: > 30000 nM; Emax ([2]; RH7777, read-out: LPA2 (Emax)): 56% |
| CCC=CCCCCCCCCOP(O)(O)=S [Compound 8e, Thiophosphoric acid O-dodec-9-enyl ester] | – | – | – | – | – | – | – | 1460 nM | > 30000 nM | > 30000 nM | > 30000 nM | 2970 nM | IC50 [1]: 27 nM; Ki [1]: 14 nM; effect at LPA3 in words ([1]; RH7777 cells expressing LPA3): equipotent antagonist as 8f; EC50 [2]: 677 nM; IC50 [2]: > 30000 nM; Emax ([2]; RH7777, read-out: LPA2 (Emax)): 100%; effect in PC-3 cells in words ([4]; Ca2+ transients, PC-3 cells): both independent activation and inhibition of LPA-induced Ca^2+ transients; Emax ([4]; Homo sapiens, PC-3, read-out: PC-3 (Emax)): 27% |
| CCCCCCCCCCP(=O)(O)O [Compound 9a, n-decyl-phosphonate] | > 30000 nM | 68 nM | 1200 nM | > 30000 nM | > 30000 nM | > 30000 nM | > 30000 nM | 1500 nM | – | – | – | – | IC50 [4, 13]: 3120 nM |
| CCCCCCCCCCOP(O)(O)=S [Compound 8a, Thiophosphoric acid O-decyl ester] | – | 49 nM | 122 nM | – | – | – | – | 521 nM | > 30000 nM | > 30000 nM | > 30000 nM | 1220 nM | – |
| CCCCCC=CCCCOP(=O)(O)O [Compound 5b, Phosphoric acid monodec-4-enyl ester] | – | – | – | > 10000 nM | > 30000 nM | > 30000 nM | > 10000 nM | 735 nM | > 30000 nM | – | – | – | IC50 [1]: 830 nM; Ki [1]: 370 nM; IC50 [4, 15]: 1300 nM |
| CCCCCCCCCCCCOP(O)(O)=S [Compound 8b, Thiophosphoric acid O-dodecyl ester] | – | 14 nM | 28 nM | – | – | – | – | 1300 nM | > 30000 nM | > 30000 nM | > 30000 nM | 2840 nM | – |
| CCCCCCCCOC[C@@H](COP(O)(O)=S)OCCCCCCCC [(S) enantiomer] | – | – | – | – | – | – | – | – | – | – | – | – | IC50 ([3]; for 200 nM LPA, formula (VII)A enantiomer, method not stated at b93, read-out: IC50 for LPA1): 184 nM |
| CCCCCCCCCCCCCCOP(O)(O)=S [Compound 8c, Thiophosphoric acid O-tetradecyl ester] | – | 76 nM | 162 nM | – | – | – | – | – | > 30000 nM | > 30000 nM | > 30000 nM | > 30000 nM | EC50 ([4]; Homo sapiens, PC-3, read-out: PC-3 EC50): > 30000 nM |

From patent US7217704B2, “LPA receptor agonists and antagonists and methods of use” (The University of Tennessee Research Foundation, priority 2003, dated 2007)
